Data from patent US20260091026A1, “METHODS OF TREATING INFLAMMATORY DISEASES” (INTERLINE THERAPEUTICS, INC., priority 2023, published 2026).

Columns and labels:
[1] = test system: THP1-Dual cells, NF-κB pathway (SEAP); assay: THP-1 Dual cell SEAP assay (L18-MDP stimulated); assay type: cell-based; conditions: Homo sapiens, 10 ng/mL L18-MDP, 20-24 h, SEAP readout, read-out: IFNγ THP1 IC50
Summary of the method: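 IC50 values come from non-linear fits of % inhibition of SEAP, measured as QUANTI-Blue optical density (620-655 nm, 2 h) in media-blanked supernatants. These were taken from THP1-Dual cells treated with compound for 30 min before overnight exposure to 10 ng/mL L18-MDP final at 37 °C.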

RIPK2 (KD)/XIAP (BIR2) = target: T1, RIPK2 (KD)/XIAP (BIR2) (Homo sapiens, UniProt O43353); assay: RIPK2-XIAP binding competition PPI assay (TR-FRET); conditions: for Emax: 50 nM of GSK583 = -100% activity, read-out: PPI Amax; for IC50: GST-RIPK2 / His-XIAP (BIR2)-avi, 120 min at 23° C.
T1 construct: made in house; host or cells: baculovirus-infected Sf9 cells
T1 sequence (O43353 1-310): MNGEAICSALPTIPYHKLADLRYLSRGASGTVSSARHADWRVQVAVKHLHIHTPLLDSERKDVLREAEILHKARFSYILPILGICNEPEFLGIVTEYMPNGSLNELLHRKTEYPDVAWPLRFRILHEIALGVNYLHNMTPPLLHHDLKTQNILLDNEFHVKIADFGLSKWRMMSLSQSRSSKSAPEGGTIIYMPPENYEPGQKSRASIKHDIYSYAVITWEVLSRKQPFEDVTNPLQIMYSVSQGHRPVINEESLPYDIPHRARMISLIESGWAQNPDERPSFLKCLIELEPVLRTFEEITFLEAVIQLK
Summary of the method: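 After 2 h at 23 °C, complex formation was read as the 665/520 nm emission ratio (337 nm excitation), scaled between uninhibited reaction and 50 nM GSK583. The mix held 1 nM human RIPK2 kinase fragment-GST, 25 nM His-tagged XIAP BIR2 and Tb/XL665 antibodies in pH 7.5 Tris buffer containing vanadate and glycerophosphate.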

Row | SMILES | IC50 [1] | Emax (RIPK2 (KD)/XIAP (BIR2)) | IC50 (RIPK2 (KD)/XIAP (BIR2))
1 | COc1cc2ncc(-c3cc(C(=O)NCc4nc(C)c(C)s4)n(C)n3)n2cc1S(=O)(=O)C(C)(C)C [Example 92, 3-(6-(tert-butylsulfonyl)-7-methoxyimidazo[1,2-a]pyridin-3-yl)-N-((4,5-dimethylthiazol-2-yl)methyl)-1-methyl-1H-pyrazole-5-carboxamide] | > 2500 nM | ≥ 80% | 100 to 1000 nM
2 | COc1cc2ncc(-c3cc(C(=O)Nc4ccccc4)n(C)n3)n2cc1S(=O)(=O)C(C)(C)C [Example 7, 3-(6-(tert-butylsulfonyl)-7-methoxyimidazo[1,2-a]pyridin-3-yl)-1-methyl-N-phenyl-1H-pyrazole-5-carboxamide] | > 2500 nM | ≥ 80% | > 1000 nM
3 | COc1cc2ncc(-c3cc(C(=O)NCc4cn5ccccc5n4)n(C)n3)n2cc1S(=O)(=O)C(C)(C)C [Example 22, 3-(6-(tert-butylsulfonyl)-7-methoxyimidazo[1,2-a]pyridin-3-yl)-N-(imidazo[1,2-a]pyridin-2-ylmethyl)-1-methyl-1H-pyrazole-5-carboxamide] | > 2500 nM | ≤ 30% | > 1000 nM
4 | C[C@@H](NC(=O)c1cc(-c2cnc3cc(OCCO)c(S(=O)(=O)C(C)(C)C)cn23)nn1C1CC1)c1ncccn1 [Example 136, (R)-3-(6-(tert-butylsulfonyl)-7-(2-hydroxyethoxy)imidazo[1,2-a]pyridin-3-yl)-1-cyclopropyl-N-(1-(pyrimidin-2-yl)ethyl)-1H-pyrazole-5-carboxamide] | < 100 nM | ≥ 80% | < 10 nM
5 | C[C@@H](NC(=O)c1cc(-c2cnc3cc(OCCO)c(S(=O)(=O)C(C)(C)C)cn23)nn1C)c1ncccc1F [Example 110, (R)-3-(6-(tert-butylsulfonyl)-7-(2-hydroxyethoxy)imidazo[1,2-a]pyridin-3-yl)-N-(1-(3-fluoropyridin-2-yl)ethyl)-1-methyl-1H-pyrazole-5-carboxamide] | < 100 nM | ≥ 80% | 10 to 100 nM
6 | CCn1nc(-c2cnc3cc(OC)c(S(=O)(=O)C(C)(C)C)cn23)cc1C(=O)N[C@H](C)c1ncccn1 [Example 96, (R)-3-(6-(tert-butylsulfonyl)-7-methoxyimidazo[1,2-a]pyridin-3-yl)-1-ethyl-N-(1-(pyrimidin-2-yl)ethyl)-1H-pyrazole-5-carboxamide] | < 100 nM | ≥ 80% | < 10 nM
7 | CCn1nc(-c2cnc3cc(OCCO)c(S(=O)(=O)C(C)(C)C)cn23)cc1C(=O)NCc1cc(C)sn1 [Example 129, 3-(6-(tert-butylsulfonyl)-7-(2-hydroxyethoxy)imidazo[1,2-a]pyridin-3-yl)-1-ethyl-N-((5-methylisothiazol-3-yl)methyl)-1H-pyrazole-5-carboxamide] | < 100 nM | ≥ 80% | < 10 nM
8 | COc1cc2ncc(-c3cc(C(=O)NCc4ncn(C)n4)n(C)n3)n2cc1S(=O)(=O)C(C)(C)C [Example 81, 3-(6-(tert-butylsulfonyl)-7-methoxyimidazo[1,2-a]pyridin-3-yl)-1-methyl-N-((1-methyl-1H-1,2,4-triazol-3-yl)methyl)-1H-pyrazole-5-carboxamide] | > 2500 nM | ≥ 80% | 100 to 1000 nM
9 | COc1cc2ncc(-c3cc(C(=O)NCc4ccncc4)n(C)n3)n2cc1S(=O)(=O)C(C)(C)C [Example 29, 3-(6-(tert-butylsulfonyl)-7-methoxyimidazo[1,2-a]pyridin-3-yl)-1-methyl-N-(pyridin-4-ylmethyl)-1H-pyrazole-5-carboxamide] | > 2500 nM | ≤ 30% | > 1000 nM
10 | COc1cc2ncc(-c3cc(C(=O)NCc4n[nH]c5cccc(F)c45)n(C)n3)n2cc1S(=O)(=O)C(C)(C)C [Example 19, 3-(6-(tert-butylsulfonyl)-7-methoxyimidazo[1,2-a]pyridin-3-yl)-N-((4-fluoro-1H-indazol-3-yl)methyl)-1-methyl-1H-pyrazole-5-carboxamide] | 100 to 500 nM | ≥ 80% | < 10 nM
11 | COc1cc2ncc(-c3cc(C(=O)NCc4ncccc4OC)n(C)n3)n2cc1S(=O)(=O)C(C)(C)C [Example 72, 3-(6-(tert-butylsulfonyl)-7-methoxyimidazo[1,2-a]pyridin-3-yl)-N-((3-methoxypyridin-2-yl)methyl)-1-methyl-1H-pyrazole-5-carboxamide] | > 2500 nM | ≥ 80% | 100 to 1000 nM
12 | CCn1nc(-c2cnc3cc(OCCO)c(S(=O)(=O)C(C)(C)C)cn23)cc1C(=O)N[C@@H](C)c1cc(C)sn1 [Example 133, (S)-3-(6-(tert-butylsulfonyl)-7-(2-hydroxyethoxy)imidazo[1,2-a]pyridin-3-yl)-1-ethyl-N-(1-(5-methylisothiazol-3-yl)ethyl)-1H-pyrazole-5-carboxamide] | 500 to 2500 nM | ≥ 80% | 100 to 1000 nM
13 | COc1cc2ncc(-c3cc(C(=O)NCc4cnccn4)n(C)n3)n2cc1S(=O)(=O)C(C)(C)C [Example 67, 3-(6-(tert-butylsulfonyl)-7-methoxyimidazo[1,2-a]pyridin-3-yl)-1-methyl-N-(pyrazin-2-ylmethyl)-1H-pyrazole-5-carboxamide] | > 2500 nM | 55 to 80% | > 1000 nM
14 | COc1cn2ncc(-c3cc(C(=O)N[C@H](C)c4ccccn4)n(C)n3)c2cc1C1(F)CCN(C)CC1 [Example 58, (R)-3-(5-(4-fluoro-1-methylpiperidin-4-yl)-6-methoxypyrazolo[1,5-a]pyridin-3-yl)-1-methyl-N-(1-(pyridin-2-yl)ethyl)-1H-pyrazole-5-carboxamide] | 500 to 2500 nM | ≥ 80% | 100 to 1000 nM
15 | COc1cc2ncc(-c3cc(C(=O)N[C@H](C)c4ccccn4)n(C(C)C)n3)n2cc1S(=O)(=O)C(C)(C)C [Example 101, (R)-3-(6-(tert-butylsulfonyl)-7-methoxyimidazo[1,2-a]pyridin-3-yl)-1-isopropyl-N-(1-(pyridin-2-yl)ethyl)-1H-pyrazole-5-carboxamide] | < 100 nM | ≥ 80% | < 10 nM
16 | COc1cc2ncc(-c3cc(C(=O)NCC4CCCC4)n(C)n3)n2cc1S(=O)(=O)C(C)(C)C [Example 40, 3-(6-(tert-butylsulfonyl)-7-methoxyimidazo[1,2-a]pyridin-3-yl)-N-(cyclopentylmethyl)-1-methyl-1H-pyrazole-5-carboxamide] | > 2500 nM | ≥ 80% | 100 to 1000 nM
17 | C[C@@H](NC(=O)c1cc(-c2cnc3cc(OCCO)c(S(=O)(=O)C(C)(C)C)cn23)nn1C)c1ccccc1 [Example 32, (R)-3-(6-(tert-butylsulfonyl)-7-(2-hydroxyethoxy)imidazo[1,2-a]pyridin-3-yl)-1-methyl-N-(1-phenylethyl)-1H-pyrazole-5-carboxamide] | < 100 nM | ≥ 80% | < 10 nM
18 | COc1cc2ncc(-c3cc(NC(=O)OCc4ccccc4)n(C)n3)n2cc1S(=O)(=O)C(C)(C)C [Example 149] | 100 to 500 nM | ≥ 80% | 10 to 100 nM
19 | COc1cc2ncc(-c3cc(C(=O)NCc4[nH]ncc4C)n(C)n3)n2cc1S(=O)(=O)C(C)(C)C [Example 43, 3-(6-(tert-butylsulfonyl)-7-methoxyimidazo[1,2-a]pyridin-3-yl)-1-methyl-N-((4-methyl-1H-pyrazol-5-yl)methyl)-1H-pyrazole-5-carboxamide] | > 2500 nM | ≥ 80% | 100 to 1000 nM
20 | COc1cc2ncc(-c3cc(NC(=O)O[C@H](C)c4ccccc4)n(C)n3)n2cc1S(=O)(=O)C(C)(C)C [Example 151, (R)-1-phenylethyl (3-(6-(tert-butylsulfonyl)-7-methoxyimidazo[1,2-a]pyridin-3-yl)-1-methyl-1H-pyrazol-5-yl)carbamate] | < 100 nM | ≥ 80% | < 10 nM
21 | COc1cc2ncc(-c3cc(C(=O)N[C@H](CO)c4ccccc4)n(C)n3)n2cc1S(=O)(=O)C(C)(C)C [Example 11, (S)-3-(6-(tert-butylsulfonyl)-7-methoxyimidazo[1,2-a]pyridin-3-yl)-N-(2-hydroxy-1-phenylethyl)-1-methyl-1H-pyrazole-5-carboxamide] | > 2500 nM | ≤ 30% | > 1000 nM
22 | COc1cc2ncc(-c3cc(C(=O)NCC4CC4)n(C)n3)n2cc1S(=O)(=O)C(C)(C)C [Example 38, 3-(6-(tert-butylsulfonyl)-7-methoxyimidazo[1,2-a]pyridin-3-yl)-N-(cyclopropylmethyl)-1-methyl-1H-pyrazole-5-carboxamide] | > 2500 nM | 30 to 55% | > 1000 nM
23 | CCn1nc(-c2cnc3cc(OCCO)c(S(=O)(=O)C(C)(C)C)cn23)cc1C(=O)N[C@H](C)c1ncccn1 [Example 119, (R)-3-(6-(tert-butylsulfonyl)-7-(2-hydroxyethoxy)imidazo[1,2-a]pyridin-3-yl)-1-ethyl-N-(1-(pyrimidin-2-yl)ethyl)-1H-pyrazole-5-carboxamide] | < 100 nM | ≥ 80% | < 10 nM
24 | COc1cc2ncc(-c3cc(C(=O)N[C@H](C)c4ccccn4)[nH]n3)n2cc1S(=O)(=O)C(C)(C)C [Example 146, (R)-3-(6-(tert-butylsulfonyl)-7-methoxyimidazo[1,2-a]pyridin-3-yl)-N-(1-(pyridin-2-yl)ethyl)-1H-pyrazole-5-carboxamide] | 100 to 500 nM | ≥ 80% | 10 to 100 nM
